According to PubChem BioAssay (NCI):
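How tested: cells in 96-well plates exposed to compound for 48 hours at five concentrations. TGI: concentration producing complete growth inhibition.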

The molecules below were run on HOP-18 NSCLC (assay: NCI anticancer screen, dose series, 48 h).

SMILES | TGI
O=c1nc2sc3ccc4ccccc4c3n2[nH]c1=O | > 100 µM
COc1cc2c(c(OC(C)=O)c1OC(C)=O)-c1ccc(SC)c(=O)cc1C(NC(C)=O)CC2 (centres undefined) | > 100 µM
CCCCCCCCCCCCCCCC(=O)OC1C(O)C(CO)OC(OC)C1NC(=O)N(CCCl)N=O (centres undefined) | 31.3 µM
CC(=O)N/C(=C\c1ccc(/C=C(\NC(C)=O)C2=NC3C(=O)c4ccccc4C(=O)C3N2)cc1)C1=NC2C(=O)c3ccccc3C(=O)C2N1 (centres undefined) | > 100 µM
